From patent publication US8809377B2, “Deubiquitinase inhibitors and methods for use of the same” (The Regents of the University of Michigan, priority 2010, dated 2014)

Tests used:
Toxoplasma gondii = Toxoplasma gondii replication in human foreskin fibroblasts; type: cell-based
Protocol: Primary human foreskin fibroblasts (HFF) were infected with trachyzoites in the presence of WP1130 or vehicle control for 24 hours. […] 1.25×10^5 tachyziotes (RH strain) (MOI=1) were added to each well of a chamber slide in the presence of WP1130 or vehicle control. At 24 hours post infection, cells were fixed in 4% paraformaldehyde for fifteen minutes. Cells were then washed with PBS and analyzed by immunofluorescence microscopy. Parasites were stained with an anti-SAG 1 antibody (the immunodominant surface antigen of T. gondii) followed by an Alexa 594-labeled secondary antibody and DAPI. For quantitative analysis the number of parasites/vacuole were counted.
WP1130 also blocks the replication of the apicomplexan Toxoplasma gondii in primary human foreskin fibroblasts. Cells were treated with WP1130 and infected with tachyziotes (RH strain) (MOI 1) for 24 hr before performing immunofluorescence and counting parasite-containing vacuoles.

pStat5 = experiment: Western blot of pStat5; type: cell-based; settings: BV-173 cells, 5 μM, 1 or 2 hours
Protocol: Total cell lysates were prepared by boiling and sonicating cell pellets in 1× Laemmli reducing sample buffer. To prepare detergent soluble and insoluble fractions, cells were lysed in cold isotonic lysis buffer [10 mM Tris-HCl (pH 7.5), 0.5% Triton X-100, 150 mM NaCl along with Mini-Complete and PhosSTOP] for 15 min on ice and centrifuged 10 min at 20,000 RCF. The clarified supernatant was used as the detergent soluble cell fraction. The residual pellet was washed and extracted in Laemmli reducing sample buffer and briefly sonicated to derive the detergent insoluble fraction. Equal volumes of cellular lysate or equal protein amounts were electrophoresed on SDS-PAGE gels and transferred to nitrocellulose membranes (Whatmann, Dassel, Germany). Proteins were detected by immunoblotting.
Cancer Res, 2010. 70(22): p. […] Blood, 2011. 117(11): p. […] Biochem Pharmacol, 2011. 82(4): p. […] Blood, 2007. 109(8): p. 3470-8.

Murine norovirus (MNV) = experiment: Murine norovirus plaque assay; type: cell-based; settings: Norwalk virus
Protocol: Viral titers were determined by plaque assay.
Cells were treated with IFN-β as a positive anti-viral control.

La Crosse virus (LaCV) = experiment: La Crosse virus plaque assay; settings: human neurons (Be2-c), 5 μM, 30 min pre-treatment
USP5 = biological target: T1, USP5 (Homo sapiens, UniProt P45974); experiment: HA-UbVs labeling of USP5; type: cell-based
T1 construct: endogenous in cells; host or cells: Z138
T1 sequence (P45974 1-858): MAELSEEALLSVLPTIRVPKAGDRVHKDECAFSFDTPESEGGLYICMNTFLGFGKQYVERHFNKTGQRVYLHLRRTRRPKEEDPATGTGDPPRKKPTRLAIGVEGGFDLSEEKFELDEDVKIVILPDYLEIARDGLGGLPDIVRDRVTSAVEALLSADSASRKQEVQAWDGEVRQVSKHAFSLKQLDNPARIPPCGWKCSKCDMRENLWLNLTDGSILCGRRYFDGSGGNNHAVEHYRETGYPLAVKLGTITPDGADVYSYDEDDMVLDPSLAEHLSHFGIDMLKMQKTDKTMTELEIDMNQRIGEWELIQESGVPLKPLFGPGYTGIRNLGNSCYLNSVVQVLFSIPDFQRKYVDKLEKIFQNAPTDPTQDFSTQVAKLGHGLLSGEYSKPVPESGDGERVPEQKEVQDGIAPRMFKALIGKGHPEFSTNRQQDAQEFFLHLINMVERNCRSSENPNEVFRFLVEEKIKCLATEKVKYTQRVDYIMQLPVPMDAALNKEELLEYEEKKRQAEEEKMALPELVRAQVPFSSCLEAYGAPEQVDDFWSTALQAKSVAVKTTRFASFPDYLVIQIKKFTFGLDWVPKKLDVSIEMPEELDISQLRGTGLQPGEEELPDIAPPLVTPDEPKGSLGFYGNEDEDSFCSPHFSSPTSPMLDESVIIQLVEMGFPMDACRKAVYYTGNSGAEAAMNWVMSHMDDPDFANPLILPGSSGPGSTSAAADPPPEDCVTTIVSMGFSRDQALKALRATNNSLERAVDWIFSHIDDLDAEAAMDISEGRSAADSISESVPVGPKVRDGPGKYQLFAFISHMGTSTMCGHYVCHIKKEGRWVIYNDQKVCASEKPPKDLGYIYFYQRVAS
Protocol: To assay for changes in activity of cellular deubiquitinase enzymes, Z138 and HEK293 cells were lysed in DUB buffer (50 mM Tris pH 7.4, 5 mM MgCl2, 150 mM NaCl) for 10 min at 4° C. The lysates were centrifuged at 20,000 RFC for 10 min and the supernatant was used for DUB labeling. Equal amounts of lysate were incubated with 500 ng of HA-UbVs for 1 hr at room temperature, followed by boiling in reducing sample buffer and resolving by SDS-PAGE. After protein transfer to nitrocellulose membranes, HA immunoblotting was used to detect DUB labeling.
Hemagglutinin-tagged ubiquitin vinyl methyl sulfone (HA-UbVs) acts as a DUB suicide substrate, forming a covalent adduct with active DUB enzymes. Specific cellular DUBs can be identified by anti-HA blotting, as previously shown in various cell types. Changes in specific DUB activities are measurable by monitoring HA-labeling in lysates from control and treated cells. […]
USP9x was immunoprecipitated from Z138 cell lysates, prepared in DUB buffer and the beads were incubated with vehicle alone or WP1130 for 30 min. Ub-AMC (500 nM) was added to each reaction and fluorescence was monitored every minute for up to 30 minutes. The maximum fluorescence observed at the end of the linear phase of substrate cleavage in control and WP1130 treated DUBs was used as a gauge to estimate DUB activity and % inhibition. […]

[1] = primary human foreskin fibroblasts, RH strain MOI 1, 24 hr

## CCC[C@H](NC(=O)/C(C#N)=C/c1cccc(Br)n1)c1ccccc1 [WP1130]
Toxoplasma gondii; HFF, 5 μM, 24 hours post infection
  number of parasites per vacuole: significantly reduced
Toxoplasma gondii; [1]
  decrease in the vacuoles containing 4 parasites: ~5 fold
  increase in the number of vacuoles containing only 1 parasite: ~3 fold
pStat5
  phosphorylation of Stat5: loss of phosphorylation of Stat5
Murine norovirus (MNV); RAW264.7, MNV, murine macrophages (RAW264.7 or bone marrow derived), 5 μM, 30 min pre-treatment, 8-12 hr, read-out: Log inhibition by plaque assay
  log reduction at 5 µM: ~2
Murine norovirus (MNV); RAW264.7, MNV-1, RAW 264.7, 12 hours postinfection, read-out: anti-viral EC50 activity
  EC50: 1.9 µM
La Crosse virus (LaCV)
  Log inhibition by plaque assay: 2-2.5 log
La Crosse virus (LaCV); listed as HWP1130
  Log inhibition by plaque assay: 2.5 log
USP5; HA-UbVs labeling upon incubation with compound
  reduction in HA labeling of USP5: about 80%
USP5; Z138 cells, 1, 5 or 10 μM, 1 hour
  HA-UbVS labeling of USPS: dose-dependent and time reduction in the labeling
